pIC50: −log10 of the molar value.
Key:
rat thoracic aorta = assay: Rat aortic contraction caused by norepinephrine and high potassium (KCl); format: cell-based, Wistar rat; details: 15 min; for K+ contraction (%), Tonic: K+ (80 mM); for norepinephrine contraction (%), Phrase (phasic) / norepinephrine contraction (%), Tonic: norepinephrine 3 μM
Procedure: A. Rat Aortic Contraction
Wistar rats of either sex weighing 250 g to 300 g were killed by a blow to the head. The thoracic aorta was isolated and excess fat and connective tissue were removed. Vessels were cut into rings of about 5 mm in length and mounted in organ baths containing 5 ml Krebs solution of the following composition (mM): NaCl (118.4), KCl (4.7), CaCl (1.9), MgSO4 (1.2), KH2 PO4 (1.2), NaHCO3 (25.0) and glucose (11.7). The tissue bath solution was maintained at 37° C. and gassed with 95% O2 :5% CO2 mixture. Two stainless steel hooks were inserted into the aortic lumen, one was fixed while the other was connected to a transducer. Aortae were equilibrated in the medium for 90 min with three changes of Krebs solution and maintained under an optimal tension of 1 g before specific experimental protocols were initiated.
Contraction was recorded isometrically via a force-displacement transducer connected to a Grass polygraph. Aortae were allowed to preincubate for 15 minutes with cinnamophilin before generating the cumulative concentration-response curve with each agonist for 15-30 min at 3 min intervals. Results are expressed as a percentage of the maximal control response for each agonist.
Rat aorta ring were preincubated with lignans or DMSO (0.1% control) at
37° C. for 15 min, then the inducer was added.

rabbit platelets = assay: Aggregation of washed rabbit platelet suspension induced by AA, PAF, collagen, U-46619, ADP and thrombin; format: cell-based
Procedure: A. Preparation of aggregation inducing agent
1. Collagen (bovine tendon) in 15 mM aqueous acetic acid was homogenized at 4° C. to form a well dispersed suspension in 1 mg/ml and stocked at -70° C. Before using, it was thawed and well homogenized.
2. PAF was dissolved in CCl4 and stocked at […] Before using, it was diluted with deionized water.
3. […] and sodium arachidonate (AA) were dissolved in deionized water for use.
B. Preparation of platelets
A suspension of platelets was prepared according to the reported method. EDTA (100 mM) and the blood obtained from rabbit's ear vein were mixed in the ratio of 1:4, and immediately centrifuged (120× g) at room temperature for 10 minutes. Platelet-rich plasma was subjected to further centrifuge (500× g) for another 10 minutes. After the plasma was removed, the platelets in the lower layer were suspended in the Tyrode solution containing EDTA (2 mM) and bovine serum albumin (3.5 mg/ml), and subjected to centrifuge (500× g) again for 10 minutes. The platelets obtained were suspended in a Tyrode solution containing no EDTA, and was adjusted to about 4.5×10^8 cells/ml by a cell counter. 1 mM of calcium ion (Ca^2+) was added to the suspension. 30 minutes after the addition, the experiment was conducted. The composition of Tyrode […]: NaCl (136.9), KCl (2.7), NaH2 PO4 (0.4), NaHCO3 (11.9), glucose (11.1).
C. Platelet aggregation and ATP release reaction test
The method reported by Born (J. Physiol. 168, 178, 1963) was used to determine the platelet aggregation by a Lumi-aggregometer (Model 1020, Payton, Canada). Platelet suspension (0.4 ml) was added into a small glass tube coated with silicone, and stirred at 900 rpm with a small magnetic stirrer. Unless otherwise specified, the antagonist was added 1 minute before the inducing agent, and all the reactions were carried out at 37° C. The aggregation was calculated by following formula: […]
aggregation (% )=(light absorption before adding inducing agent-light absorption after adding inducing agent)/(light absorption before adding inducing agent-light absorption of Tyrode solution)×100% […]
| Platelets were precincubated with 1a, 1b, 1c, 1e, 2 or DMSO (0.5%, | control) at 37° C. for 3 min, then the inducer was added.

[1] = molecular target: thromboxane A2 synthetase; details: Hoet et al., Blood 75, 646-53, 1990; read-out: IC50, thromboxane A2 synthetase inhibition; cited from earlier work
thromboxane receptor = details: Hoet et al., Blood 75, 646-53, 1990; read-out: IC50, thromboxane receptor inhibition; cited from earlier work
[2] = tested on: platelet aggregation, aortic contraction, tracheal contraction; assay: Bioassay / pharmacological evaluation (platelet aggregation, rat aortic contraction, guinea-pig tracheal contraction); details: rat aortic and guinea-pig tracheal contraction bioassays
Procedure: The methods of isolation might be performed using polar organic solvent such as methanol, ethanol and acetone. Solvent of the extract from root parts of Cinnamomum philippinense was evaporated and the residue was suspended in water, and extracted with chloroform or other non-polar organic solvents. Bioassay was performed by using this chloroform layer in platelet aggregation test, rat aortic contraction, and guinea-pig tracheal contraction. Purified bioactive components were obtained through silica gel column, then afforded cinnamophilin (1), two known lignan compounds as (+)-guaiacin (3), meso-dihydroguaiaretic acid (2) and an aromatic acid as vallinic acid.
Compounds II-V wherein R1 represents H, C1-8 alkyl, --OCOR, wherein R2 represents OH, COO--, wherein R represents H, C1-8 alkyl. Preferred substituted alkyl group is 8 carbon number, optical alkyl group is 6 carbon number. Structures of these compounds were elucidated on the basis of their IR, UV, ^1 H-NMR, ^13 C-NMR, Mass spectra as well as the elemental analytical data.

[3] = Antioxidation (absorbance at 500 nm, FeSCN method); details: 20 μM
From the text: (Absorbance at 500 nm, using FeSCN method)

[4] = compared with BHA or BHT; background statement; cited from earlier work
[5] = inducer AA (100 μM), conc 20 μM, control 92.1 ± 1.3
[6] = inducer AA (100 μM), conc 50 μM, control 92.1 ± 1.3
[7] = inducer AA (100 μM), conc 100 μM, control 92.1 ± 1.3
[8] = inducer AA (100 μM), conc 200 μM, control 92.1 ± 1.3
[9] = inducer ADP (20 μM), conc 300 μM, control 81.6 ± 3.0
[10] = inducer PAF (2 ng/ml), conc 300 μM, control 91.7 ± 2.0
[11] = inducer U-46619 (1 μM), conc 200 μM, control 89.4 ± 1.2
[12] = inducer collagen (10 μg/ml), conc 50 μM, control 93.6 ± 1.0
[13] = inducer collagen (10 μg/ml), conc 100 μM, control 93.6 ± 1.0
[14] = inducer collagen (10 μg/ml), conc 200 μM, control 93.6 ± 1.0
[15] = inducer thrombin (0.1 U/ml), conc 300 μM, control 94.8 ± 2.0

Row | SMILES | K+ contraction (%), Tonic (rat thoracic aorta; conc 10 μM) [%] | norepinephrine contraction (%), Phrase (phasic) (rat thoracic aorta; conc 10 μM) [%] | norepinephrine contraction (%), Tonic (rat thoracic aorta; conc 10 μM) [%] | Aggregation (%) (rabbit platelets; [5]) | Aggregation (%) (rabbit platelets; [6]) | Aggregation (%) (rabbit platelets; [7]) | Aggregation (%) (rabbit platelets; [8]) | Aggregation (%) (rabbit platelets; [9]) | Aggregation (%) (rabbit platelets; [10]) | Aggregation (%) (rabbit platelets; [11]) | Aggregation (%) (rabbit platelets; [12]) | Aggregation (%) (rabbit platelets; [13]) | Aggregation (%) (rabbit platelets; [14]) | Aggregation (%) (rabbit platelets; [15]) | further results
1 | COc1cc(CC(C)C(C)C(O)c2ccc(O)c(OC)c2)ccc1O (stereo not shown) [Compound 7, cinnamophilinol] | 66.8 ± 2.2 | 100 | 113.3 ± 7.5 | 86.3 ± 1.0 | 75.5 ± 6.2 | 10.4 ± 9.0 | 0.0 ± 0.0 | 77.3 ± 4.0 | 79.7 ± 6.6 | 90.4 ± 1.4 | 89.7 ± 3.4 | 75.5 ± 2.4 | 0.0 ± 0.0 | 73.2 ± 6.8 | K+ contraction (%), Tonic (rat thoracic aorta; conc 50 μM): 51.0 ± 4.4%; norepinephrine contraction (%), Phrase (phasic) (rat thoracic aorta; conc 50 μM): 95.5 ± 3.2%; norepinephrine contraction (%), Tonic (rat thoracic aorta; conc 50 μM): 85.3 ± 10.4%
2 | O=C(O)CCCCO/N=C(/c1cccnc1)c1cccc(C(F)(F)F)c1 [ridogrel] | – | – | – | – | – | – | – | – | – | – | – | – | – | – | pIC50 [1]: 8.30; pIC50 (thromboxane receptor): 5.70
3 | COc1ccc(CC(C)C(C)C(=O)c2ccc(OC)c(OC)c2)cc1OC (stereo not shown) [Compound 4, dimethylcinnamophilin] | 10.5 | 61.3 ± 2.1 | 48.6 ± 3.3 | 87.8 ± 3.3 | 75.8 ± 10.6 | 37.7 ± 1.6 | 0.0 ± 0.0 | 30.7 ± 13.0 | 0.0 ± 0.0 | 86.5 ± 1.7 | 86.2 ± 4.7 | 80.3 ± 3.6 | 7.5 ± 6.4 | 89.7 ± 3.5 | –
4 | COc1cc(C[C@@H](C)[C@@H](C)Cc2ccc(O)c(OC)c2)ccc1O [Compound 2, meso-dihydroguaiaretic acid, reference compound] | 14.8 ± 2.1 | 111.1 ± 6.2 | 78.4 ± 8.8 | 0.0 ± 0.0 | – | – | – | 67.9 ± 8.4 | 91.7 ± 2.0 | 88.6 ± 3.2 | 79.7 ± 4.7 | 16.4 ± 4.4 | 0.0 ± 0.0 | 85.3 ± 6.6 | bioactivity [2]: has not been observed; K+ contraction (%), Tonic (rat thoracic aorta; conc 1 μM): 74.0 ± 4.1%; K+ contraction (%), Tonic (rat thoracic aorta; conc 3 μM): 36.5 ± 3.2%; K+ contraction (%), Tonic (rat thoracic aorta; conc 5 μM): 25.7 ± 3.9%; Aggregation (%) (rabbit platelets; inducer AA (100 μM), conc 5 μM, control 92.1 ± 1.3): 76.0 ± 7.8%; Aggregation (%) (rabbit platelets; inducer AA (100 μM), conc 10 μM, control 92.1 ± 1.3): 5.9 ± 5.3%
5 | COc1cc(CC(C)C(C)C(=O)c2ccc(OC(C)=O)c(OC)c2)ccc1OC(C)=O (stereo not shown) [Compound 5] | 18.4 ± 4.7 | 92.2 ± 13.4 | 64.6 ± 9.1 | 86.3 ± 4.6 | 57.8 ± 2.8 | 0.0 ± 0.0 | – | 60.7 ± 12.0 | 45.2 ± 9.2 | 88.4 ± 4.3 | 93.4 ± 1.2 | 80.6 ± 4.7 | 8.4 ± 7.3 | 94.9 ± 1.0 | –
6 | Cc1c(C)c2c(c(C)c1O)CCC(C)(CCCC(C)CCCC(C)CCCC(C)C)O2 (stereo not drawn) [vitamin E, α-tocopherol, reference compound] | – | – | – | – | – | – | – | – | – | – | – | – | – | – | Absorbance at 500 nm ([3]; induce time 0, control 0.047): 0.026; Absorbance at 500 nm ([3]; induce time 4, control 0.084): 0.069; Absorbance at 500 nm ([3]; induce time 7, control 0.201): 0.083; Absorbance at 500 nm ([3]; induce time 10, control 0.343): 0.108; Absorbance at 500 nm ([3]; induce time 16): 0.176; Absorbance at 500 nm ([3]; induce time 19): 0.226; Absorbance at 500 nm ([3]; induce time 22): 0.297; Absorbance at 500 nm ([3]; induce time 25): 0.487; Absorbance at 500 nm ([3]; induce time 28): 1.024; antioxidative action on fatty oils [4]: lower than BHA (t-butylhydroxyanisole) or BHT (t-butylhydroxy toluene)

Source: patent US5853731A, “Thromboxane A2 Receptor antagonism and antioxidant action of cinnamophilin and its derivatives, their pharmaceutical compositions and uses” (National Science Council, priority 1997, dated 1998)
